Data from patent publication US20260070922A1, “PYRAZOLE AND IMIDAZOLE DERIVATIVES AS DUAL OREXIN AND KAPPA-OPIOID RECEPTORS MODULATORS COMPOSITION, METHODS FOR TREATING NEUROLOGICAL AND PSYCHIATRIC DISORDERS” (HAGER BIOSCIENCES, LLC, priority 2022, published 2026).

How the values were obtained:
[1] = target: T1, human k-opioid receptor (kOR) (Homo sapiens, UniProt P41145); test: Human k-opioid (KOP) receptor (agonist radioligand [3H]U-69593) binding assay, transfected RBL cell membranes; conditions: second value of IC50/Ki cell
T1 construct: expressed in transfected cells; host or cells: RBL cells (membrane homogenates)
T1 sequence (P41145 whole entry): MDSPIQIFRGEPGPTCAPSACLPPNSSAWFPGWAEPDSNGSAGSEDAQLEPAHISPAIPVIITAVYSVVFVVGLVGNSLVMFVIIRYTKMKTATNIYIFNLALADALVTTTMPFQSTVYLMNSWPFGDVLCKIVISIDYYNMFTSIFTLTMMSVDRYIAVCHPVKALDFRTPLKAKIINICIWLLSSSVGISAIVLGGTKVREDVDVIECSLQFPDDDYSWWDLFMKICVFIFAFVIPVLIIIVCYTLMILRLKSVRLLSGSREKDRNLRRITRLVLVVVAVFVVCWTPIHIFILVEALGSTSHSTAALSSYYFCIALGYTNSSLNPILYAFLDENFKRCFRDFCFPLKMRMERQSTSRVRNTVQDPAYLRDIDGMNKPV

[2] = target: T1, human k-opioid receptor (kOR); test: as above; conditions: for IC50: first value of IC50/Ki cell; for inhibition at 1 µM: read-out: KOR % Inh. @ 1 uM
In short: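 Membranes from transfected RBL cells (~80 μg protein) incubated 60 min at 22° C with 0.5 nM [3H]U-69593 in 50 mM Tris-HCl pH 7.4, 10 mM MgCl2, 1 mM EDTA. Nonspecific binding defined with 10 μM naloxone; filtration and scintillation counting. Values are percent inhibition of specific radioligand binding.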

[3] = target: T2, human orexin-2 receptor (OX2R) (Homo sapiens, UniProt O43614); test: In vitro orexin antagonism assay: intracellular calcium measurement (FLIPR), orexin-A 3 nM as agonist; format: cell-based; conditions: for inhibition at 1 µM: read-out: OX2R, % Inh. @ 1 uM; for Kb: second value of IC50/Kb cell; for IC50: first value of IC50/Kb cell
T2 construct: expressed in transfected cells; host or cells: CHO cells (G418 selection)
T2 sequence (O43614 1-444): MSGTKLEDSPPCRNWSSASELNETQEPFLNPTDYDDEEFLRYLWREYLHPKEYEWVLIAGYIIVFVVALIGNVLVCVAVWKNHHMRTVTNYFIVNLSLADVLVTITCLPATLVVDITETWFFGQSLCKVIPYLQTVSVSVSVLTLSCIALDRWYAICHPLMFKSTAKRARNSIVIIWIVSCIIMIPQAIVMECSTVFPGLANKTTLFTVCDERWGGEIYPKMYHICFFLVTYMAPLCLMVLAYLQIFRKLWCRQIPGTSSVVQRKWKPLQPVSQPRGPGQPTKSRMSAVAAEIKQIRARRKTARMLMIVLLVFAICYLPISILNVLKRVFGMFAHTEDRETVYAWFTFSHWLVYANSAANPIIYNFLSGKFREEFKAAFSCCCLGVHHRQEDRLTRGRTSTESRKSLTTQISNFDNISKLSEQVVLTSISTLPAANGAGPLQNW
In short: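 CHO cells stably expressing human OX1R or OX2R, loaded with fluo-4 AM (3 μM, 5 mM probenecid) for 50 min at 37 °C, then 30 min at RT. Antagonist preincubated 120 min before 3 nM orexin-A; FLIPR fluorescence peak height vs vehicle gives IC50, possibly normalized to on-plate reference; geometric mean of repeats.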

[4] = target: T3, Orexin type 1 (OX1R) receptor (Homo sapiens, UniProt O43613); test: as above; format: cell-based; conditions: for inhibition at 1 µM: read-out: OX1R, % Inh. @ 1 uM; for IC50: first value of IC50/Kb cell; for Kb: second value of IC50/Kb cell
T3 construct: expressed in transfected cells; host or cells: CHO cells (G418 selection)
T3 sequence (O43613 1-425): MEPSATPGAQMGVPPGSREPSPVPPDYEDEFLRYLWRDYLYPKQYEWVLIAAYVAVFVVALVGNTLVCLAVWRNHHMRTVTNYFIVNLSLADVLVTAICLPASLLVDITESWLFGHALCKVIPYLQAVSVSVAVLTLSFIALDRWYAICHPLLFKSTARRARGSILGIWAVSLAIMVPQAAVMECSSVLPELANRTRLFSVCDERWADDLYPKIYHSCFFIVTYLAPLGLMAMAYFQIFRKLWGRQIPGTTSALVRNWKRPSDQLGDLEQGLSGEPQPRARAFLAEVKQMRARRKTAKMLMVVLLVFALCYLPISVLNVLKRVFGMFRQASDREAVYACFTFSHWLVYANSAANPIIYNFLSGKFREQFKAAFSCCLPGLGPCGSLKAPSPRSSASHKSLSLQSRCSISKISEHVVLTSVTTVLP
In short: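 CHO cells expressing the human orexin receptor were loaded with 3 μM fluo-4 AM plus 5 mM probenecid, then exposed to antagonist for 120 min before 3 nM orexin-A (final) was added on a FLIPR.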

| Structure (SMILES) | Ki [1] [nM] | IC50 [2] [nM] | inhibition at 1 µM [2] [%] | inhibition at 1 µM [3] [%] | inhibition at 1 µM [4] [%] | IC50 [4] [nM] | Kb [4] [nM] | Kb [3] [nM] | IC50 [3] [nM] |
| --- | --- | --- | --- | --- | --- | --- | --- | --- | --- |
| CCc1cnc(NC[C@@H]2[C@H](C)CCCN2C(=O)c2c(-c3ccccc3)nn3ccccc23)nc1 [Example 4] | 854 | 1560 | 52 | – | – | – | – | – | – |
| C[C@@H]1CCCN(C(=O)c2c(-c3ccccc3)nn3c2COCC3)[C@@H]1CNc1ccc(C(F)(F)F)cn1 [Example 7] | 799 | 1470 | 35 | – | – | – | – | – | – |
| C[C@@H]1CCCN(C(=O)c2c(-c3ccccc3)nc3ccccn23)[C@@H]1CNc1ccc(C(F)(F)F)cn1 [Example 8] | 1080 | 1980 | 38 | 21.4 | 100 | – | – | – | – |
| O=C(c1c(-c2ccccc2)nn2ccccc12)N1CCC[C@H]1CNc1ccc(C(F)(F)F)cn1 [Example 10] | 3340 | 6130 | 26 | – | – | 4 | 1 | – | – |
| O=C(c1c(-c2ccccc2)nn2ccccc12)N1CCC[C@H]1Cn1ccc(-c2ccccc2)n1 [Example 13] | 549 | 1010 | 56 | 98.5 | – | – | – | 10 | – |
| O=C(c1c(-c2ccccc2)nn2ccccc12)N1CCC[C@H]1COc1ccc(C(F)(F)F)cn1 [Example 20] | 1910 | 3500 | 33 | – | – | – | – | – | – |
| O=C(c1c(-c2ccccc2)nn2ccccc12)N1CCCC[C@H]1COc1ccc(C(F)(F)F)cn1 [Example 24] | 630 | 1100 | 52 | 60.1 | 98 | 5 | 1 | – | – |
| C[C@@H]1CCCN(C(=O)c2c(-c3ccccc3)nc3ncccn23)[C@@H]1CNc1ccc(C(F)(F)F)cn1 [Example 34] | 400 | 730 | 57 | 1.8 | 79.8 | 53 | 11 | – | – |
| C[C@@H]1CCCN(C(=O)c2c(-c3ccc(F)cc3)nn3ccccc23)[C@@H]1CNc1ccc(C(F)(F)F)cn1 [Example 40] | 400 | 740 | 59 | 7.1 | 98.4 | 29 | 6 | – | – |
| O=C(c1c(-c2ccc(F)cc2)nn2ccccc12)N1CCC[C@H]1Cn1ccc(-c2ccccc2)n1 [Example 44] | 370 | 690 | 55 | 72.3 | 98.8 | 5 | 1 | 31 | 220 |
| O=C(c1c(-c2ccccc2)nc2ccc(F)cn12)N1CCC[C@H]1Cn1ccc(-c2ccc(F)cc2)n1 [Example 49] | 25 | 47 | 92 | 79.3 | 102 | 9 | 2 | 7 | 52 |
| O=C(c1c(-c2ccccc2)nc2cc(F)ccn12)N1CCC[C@H]1Cn1ccc(-c2ccc(F)cc2)n1 [Example 50] | 320 | 590 | 59 | 89 | 99 | – | – | 3 | 18 |
| O=C(c1c(-c2ccccc2)nc2cc(C(F)(F)F)ccn12)N1CCC[C@H]1Cn1ccc(-c2ccc(F)cc2)n1 [Example 53] | 31 | 56 | 93 | 95.5 | 97.6 | 21 | 4 | 5 | 33 |
